Laboratory results published in publication PMC11154460, “Effects of Aqueous Boundary Layers and Paracellular Transport on the Efflux Ratio as a Measure of Active Transport Across Cell Layers” (Pharmaceutics, 2024).
Like-named read-outs stand apart in the source and are kept apart here.

What was measured:
P-gp (MDR1) [1] = target: T1, P-gp (MDR1) (Homo sapiens, UniProt P08183); test: Bi-directional transport (monolayer efflux) study across MDCK-MDR1 cell monolayers; details: human, HPS conditions; for Papp A→B / Papp B→A: recovery-corrected mean ± SD, n = 3; for recovery: MDCK-MDR1 cell monolayers
T1 sequence (P08183 whole entry): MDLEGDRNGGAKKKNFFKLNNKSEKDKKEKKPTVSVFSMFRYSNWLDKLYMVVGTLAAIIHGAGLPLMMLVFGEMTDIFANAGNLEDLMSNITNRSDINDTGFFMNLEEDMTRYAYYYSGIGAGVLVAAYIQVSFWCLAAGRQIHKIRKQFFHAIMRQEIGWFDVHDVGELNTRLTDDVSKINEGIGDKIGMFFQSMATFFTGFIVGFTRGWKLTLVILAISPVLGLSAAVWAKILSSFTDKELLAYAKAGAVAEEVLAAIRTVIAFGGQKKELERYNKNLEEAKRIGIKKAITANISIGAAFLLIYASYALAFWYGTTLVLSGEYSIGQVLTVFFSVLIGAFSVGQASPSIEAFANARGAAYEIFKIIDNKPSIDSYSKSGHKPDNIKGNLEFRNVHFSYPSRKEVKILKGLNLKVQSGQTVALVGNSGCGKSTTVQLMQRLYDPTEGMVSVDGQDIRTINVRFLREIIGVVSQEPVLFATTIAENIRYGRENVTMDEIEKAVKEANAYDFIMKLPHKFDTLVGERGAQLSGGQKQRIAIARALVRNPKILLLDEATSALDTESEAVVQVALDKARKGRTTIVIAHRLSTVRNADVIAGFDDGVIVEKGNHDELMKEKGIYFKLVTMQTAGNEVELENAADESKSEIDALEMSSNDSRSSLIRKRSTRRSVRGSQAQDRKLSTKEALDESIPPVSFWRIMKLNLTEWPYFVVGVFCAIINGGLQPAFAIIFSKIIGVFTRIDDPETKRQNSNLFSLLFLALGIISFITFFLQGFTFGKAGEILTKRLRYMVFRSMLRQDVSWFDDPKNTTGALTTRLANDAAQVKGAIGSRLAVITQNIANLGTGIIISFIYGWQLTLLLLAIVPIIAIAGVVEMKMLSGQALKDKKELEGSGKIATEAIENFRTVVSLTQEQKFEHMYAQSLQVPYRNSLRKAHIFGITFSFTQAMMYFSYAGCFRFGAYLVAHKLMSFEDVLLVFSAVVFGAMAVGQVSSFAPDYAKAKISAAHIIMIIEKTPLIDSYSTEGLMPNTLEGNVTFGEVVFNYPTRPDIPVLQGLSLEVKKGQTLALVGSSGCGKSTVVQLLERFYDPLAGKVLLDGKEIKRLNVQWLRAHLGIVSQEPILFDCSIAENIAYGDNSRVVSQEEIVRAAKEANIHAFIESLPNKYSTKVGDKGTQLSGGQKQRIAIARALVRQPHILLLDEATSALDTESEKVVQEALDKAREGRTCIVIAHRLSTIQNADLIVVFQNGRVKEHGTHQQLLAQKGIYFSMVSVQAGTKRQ
Description: (§1) As such, for this study, MDCK-II-MDR1 cells transfected with human MDR1 for P-gp expression were obtained from The Netherlands Cancer Institute (Amsterdam, The Netherlands).
(§2) For transport experiments, MDCK-MDR1 cells were used between passages 20 and 40. Cells were seeded onto 12-well PET inserts (CellQART, Northeim, Germany; pore size: 0.4 µm; filter thickness: 11.5 µm) at a density of 1.5 × 10^5 cells/insert. Inserts with a high porosity of 100 × 10^6 pores/cm ​^2 or low porosity of 2 × 10 ​^6 pores/cm ​^2 were used. After seeding, cells were maintained as described in Section 3.1.2 for 4 days to ensure confluent cell monolayer formation. The cell medium was exchanged one day before the transport experiments were performed. Prior to the transport experiments, the inserts were washed with Hank’s balanced salt solution (HBSS) to remove residual DMEM. […] For all other inserts, no inhibitor was used.
(§3) The apical-to-basolateral ( A→B direction) as well as the basolateral-to-apical ( B→A direction) transport rates of the test compounds were determined in duplicate with varying stirring and filter conditions. The three conditions tested were as follows: high-porosity filters, stirred (HPS); high-porosity filters, unstirred (HPU); and low-porosity filters, stirred (LPS). The transport buffer was HBSS with 25 mM HEPES at pH 7.4. Stock solutions were prepared in the transport buffer, and all solutions were pre-warmed to 37 °C. […] The pHs of the buffer and stock solutions prior to the experiment as well as the pHs of all samples after experiment completion were controlled with a rapid pH automated pH meter (Hudson Robotics, Inc., Springfield, NJ, USA). The pHs remained within a range of ±0.15.
(§4) Inserts were used in 12-well plates (TPP Techno Plastic Products AG, Trasadingen, Switzerland), the basolateral compartment volume was 1.6 mL, and the apical compartment volume was 0.5 mL. The transport experiments were initiated by replacing the HBSS with transport buffer and the test compound solution.
(§5) For measurement of transport in the A→B direction: Inserts were placed in 12-well plates containing transport buffer in the basolateral compartment, after which, the test compound solution was added to the apical compartment. At every sampling step, each insert was placed into a new well containing fresh, warmed assay buffer, and the old buffer was sampled. Sampling occurred at four consistent time intervals.
(§6) For measurement of transport in the B→A direction: Inserts were placed in 12-well plates containing the test compound solution in the basolateral compartment (donor), after which, transport buffer was added to the apical compartment. At each sampling time step, 300 μ L was sampled from the apical compartment (the maximum amount that could be removed without disturbing the cell layer) and replaced with an equal volume of warmed, fresh transport buffer. Sampling occurred at four consistent time intervals. Time intervals for sampling were determined uniquely for each compound and direction measured to ensure that sink conditions would be maintained throughout the experiment.

human P-gp [2] = target: T2, human P-gp (Homo sapiens, UniProt P08183); test: as above; details: for ER: HPS conditions
T2 sequence (P08183 whole entry): as above
Description: as §1, §2, §3, §4, §5, §6

P-gp (MDR1) [3] = target: T1, P-gp (MDR1); test: in vitro; details: for efflux ratio: MDCK-MDR1, pH 7.4, ER (Papp,B→A over Papp,A→B); for efflux ratio / Papp A→B / Papp B→A: pH 7.4 ISO-pH, 12 μM (loperamide 10 μM); for Papp A→B: MDCK-MDR1, pH 7.4, Papp,A→B; for Papp A→B / Papp B→A: recovery-corrected mean ± SD; for Papp B→A: MDCK-MDR1, pH 7.4, Papp,B→A; for recovery: pH 7.4, Recovery, pH 7.4, MDCK-MDR1, 12 μM (loperamide 10 μM)
Description: as §1, §2, §3, §4, §5, §6

human P-gp [4] = target: T2, human P-gp; details: MDCK-MDR1, pH 7.4
Description: as §1, §2, §3, §4, §5, §6

[5] = HPS: high-porosity filter, stirred
[6] = HPU: high-porosity filter, unstirred
[7] = LPS: low-porosity filter, stirred

What does the source list for `COc1cccc2c1C(=O)c1c(O)c3c(c(O)c1C2=O)C[C@@](O)(C(=O)CO)C[C@@H]3O[C@H]1C[C@H](N)[C@H](O)[C@H](C)O1` [Doxorubicin, doxorubicin]?
efflux ratio (P-gp (MDR1) [1]; MDCK-MDR1, pH 6, ER, pHext 6 (ISO-pH)): 1.6; Papp A→B (P-gp (MDR1) [1]; MDCK-MDR1, pH 6, Papp,A→B, pHext 6 (ISO-pH)): 0.14 ± 0.04 ×10⁻⁶ cm/s; Papp B→A (P-gp (MDR1) [1]; MDCK-MDR1, pH 6, Papp,B→A, pHext 6 (ISO-pH)): 0.23 ± 0.08 ×10⁻⁶ cm/s; Papp A→B (P-gp (MDR1) [1]; MDCK-MDR1, pH 7, Papp,A→B, pHext 7 (ISO-pH)): 0.12 ± 0.03 ×10⁻⁶ cm/s; Papp B→A (P-gp (MDR1) [1]; MDCK-MDR1, pH 7, Papp,B→A, pHext 7 (ISO-pH)): 0.78 ± 0.36 ×10⁻⁶ cm/s; recovery (P-gp (MDR1) [1]; pH 6, Recovery, pHext 6 (ISO-pH)): 89.3 to 95.3%; recovery (P-gp (MDR1) [1]; pH 7, Recovery, pHext 7 (ISO-pH)): 87.8 to 93.1%; ER (human P-gp [2]; pHext 6 (ISO-pH)): one; ER (human P-gp [2]; pHext 7 (ISO-pH)): 6.5; ER (human P-gp [2]; pHext 7 (ISO-pH), listed as doxorubicin): > 2

How did the efflux ratio (P-gp (MDR1) [3]; [5]) turn out when `CN(C)C(=O)C(CCN1CCC(O)(c2ccc(Cl)cc2)CC1)(c1ccccc1)c1ccccc1` [Loperamide, loperamide] was run?
The efflux ratio was 2.7 ± 0.73.

And the efflux ratio (P-gp (MDR1) [3]; [6])?
The efflux ratio was 2.8 ± 0.87.

And the efflux ratio (P-gp (MDR1) [3]; [7])?
Its efflux ratio is 3.2 ± 0.91.

What about the Papp A→B (P-gp (MDR1) [3]; [5]) of the same molecule?
Its Papp A→B is 46.7 ± 5.03 ×10⁻⁶ cm/s.

And the Papp A→B (P-gp (MDR1) [3]; [6])?
Its Papp A→B is 9.8 ± 2.84 ×10⁻⁶ cm/s.

And the Papp A→B (P-gp (MDR1) [3]; [7])?
Its Papp A→B is 5.65 ± 0.42 ×10⁻⁶ cm/s.

And the Papp B→A (P-gp (MDR1) [3]; [5])?
The Papp B→A was 126 ± 27.8 ×10⁻⁶ cm/s.

And the Papp B→A (P-gp (MDR1) [3]; [6])?
Its Papp B→A is 29.2 ± 3.31 ×10⁻⁶ cm/s.

What about the Papp B→A (P-gp (MDR1) [3]; [7]) of the same molecule?
Its Papp B→A is 15.9 ± 4.24 ×10⁻⁶ cm/s.

What about the recovery (P-gp (MDR1) [3]; [5]) of the same molecule?
Its recovery is 75 to 88.1%.

And the recovery (P-gp (MDR1) [3]; [6])?
The recovery was 62.3 to 81.3%.

And the recovery (P-gp (MDR1) [3]; [7])?
Its recovery is 69.2 to 86.1%.

And the “mean ERs” value (human P-gp [4])?
Its value is “greater than two”.

How did the “mean ERs” value (human P-gp [2]; over the conditions HPS, LPS, HPU, pH 7.4) turn out when `C=C[C@H]1C[N@@]2CC[C@H]1C[C@@H]2[C@@H](O)c1ccnc2ccc(OC)cc12` [Quinidine, quinidine] was run?
The value was “greater than two”.
